Values joined by “and” are separate entries in the source; they are usually repeats but may differ in a detail not shown here. Equal entries are not always repeated.
Test system: 242566-281-R-J2-PDC complex spheroid viability
Assay: Anticancer human tumor 242566-281-R-J2-PDC patient-derived pancreatic carcinoma cell line growth inhibition [CLK]
Settings: for viability, T/C: stronger effect = lower value; active = viability on the fitted dose curve at most 10% of control; inactive = the rest
Description: A high-throughput screen of multi-cell type tumor spheroids was designed to identify active combinations of […] and targeted small molecules. Complex spheroids include a stromal component modeled by human endothelial cells (HUVEC) and fibroblasts modeled by human mesenchymal stem cells (MSCs). The concentration ranges selected for each drug and investigational agent were based upon clinically achievable concentrations if the clinical Cmax of the agent was known.
Compounds. The drugs and investigational agents: cirtuvivint (SM08502; NSC835563), CC-671 (NSC850746), vemurafenib (NSC761431), tapotoclax (NSC804041), sotorasib (NSC818433), adagrasib (NSC831453), MRTX-1133 (NSC836407), BAY2416964 (NSC825713), copanlisib (NSC816437), inavolisib (NSC800729), abemaciclib (NSC768073), osimertinib (NSC779217), entinostat (NSC756642), eltanexor (KPT-8602, NSC794443), venetoclax (NSC766270), ceralasertib (NSC777638), bortezomib (NSC756655), olaparib (NSC753686), talazoparib (NSC767125), alisertib (NSC759677), peposertib (NSC802822), gemcitabine (NSC613327), 5-fluorouracil (NSC19893), SN-38 (NSC673596), oxaliplatin (NSC266046), paclitaxel (NSC125973), and doxorubicin (NSC123127), were obtained from the National Cancer Institute (NCI) Developmental Therapeutics Program Chemical Repository. The FDA-approved anticancer drug set is available from the Developmental Therapeutics Program at https://dtp.cancer.gov/organization/dscb/obtaining/available plates.htm. […] The stock solutions were prepared in dimethyl sulfoxide (DMSO, Sigma-Aldrich, St. Louis, MO, cat. D2650), except for the platinum complexes which were prepared in saline (Quality Biological, Gaithersburg, MD, cat. 114-055-101), at 800-fold the tested concentration and stored at -70 degrees C prior to their use. All drugs and investigational agents were tested over a range starting from a high concentration at or near the clinical Cmax and decreasing in half-log increments. If the clinical Cmax for an agent had not been determined, the highest concentration tested was 10 microM.
Cell Culture. All cells were maintained in an incubator at 37 degrees C and 5% CO2 with 95% humidity. The PDC lines were cultured according to standard operating procedures established by the NCI PDMR. Briefly, all PDCs were thawed and cultured in Matrigel-coated flasks prepared with a working solution of 1X Ham's F-12 nutrient mix, without supplementation (Invitrogen, Waltham, MA, cat. 11765054), 100 U/mL penicillin-streptomycin (Invitrogen, cat. 15140122), and 2.5% Matrigel (Corning Inc., Corning, NY, cat. 354248) for the first three passages. The 947758-054-R-J2-PDC line was cultured in 6B/Colon 1A media, which includes advanced DMEM/F-12 (Thermo Fisher Scientific, cat. 12634028), 10 mM HEPES (Thermo Fisher Scientific, cat. 15630080), 1X GlutaMAX supplement (Thermo Fisher Scientific, cat. 35050061), 0.1 mg/mL primocin (InvivoGen, cat. ant-pm-2), 10% defined fetal bovine serum, heat inactivated (HyClone Laboratories Inc., cat. SH30070.03HI), 1.25 mM N-Acetyl-L-cysteine (Sigma-Aldrich, cat. A9165), 10 mM nicotinamide (Sigma-Aldrich, cat. N0636), 1X B-27 supplement (Thermo Fisher Scientific, cat. 17504044), 1X N-2 supplement (Thermo Fisher Scientific, cat. 17502048), and 10 microM Y-27632 dihydrochloride (Tocris Bioscience, cat. 1254). The 876862-298-R-J1-PDC was cultured in 6E media, which includes all 6B/Colon 1A media components plus 50% L-WRN conditioned media (ATCC, cat. CRL-3276), 50 ng/mL recombinant human EGF recombinant protein (hEGF; Thermo Fisher Scientific, cat. PHG0311), 10 ng/mL recombinant human fibroblast growth factor 10 (hGFG-10; PeproTech, cat. 100-26), 1 ng/mL recombinant human fibroblast growth factor 2 (hFGF-2; PeproTech, cat. 100-18B), and 1 µM prostaglandin E2 (PGE2; Tocris, cat. 2296). The 227483-062-R1-J1-PDC line was cultured in Panc media, containing all 6E components except hFGF-2, with the addition of 500 nM SB-431542 (Selleckchem, cat. S1067) and 10 nM gastrin (Tocris, cat. 3006). […]
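Note: spheroids exposed to compounds for 7 days before readout.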
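Throughout, for viability, T/C: 100% = DMSO vehicle control wells.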

CCCS(=O)(=O)Nc1ccc(F)c(C(=O)c2c[nH]c3ncc(-c4ccc(Cl)cc4)cc23)c1F + CNC(=O)c1ccc(Nc2nc(OC3CCCC3)c3c(-c4ccc5nc(C)oc5c4)c[nH]c3n2)c(OC)c1
inactive: viability, T/C (second compound 0.0316 µM, first compound 0.0316 µM) 89.8% | viability, T/C (second compound 0.0316 µM, first compound 0.1 µM) 99.1% | viability, T/C (second compound 0.0316 µM, first compound 0.316 µM) 86.6% | viability, T/C (second compound 0.0316 µM, first compound 1 µM) 125% | viability, T/C (second compound 0.0316 µM, first compound 3.16 µM) 104% | viability, T/C (second compound 0.1 µM, first compound 0.0316 µM) 82.2% | viability, T/C (second compound 0.1 µM, first compound 0.1 µM) 92.3% | viability, T/C (second compound 0.1 µM, first compound 0.316 µM) 88.2% | viability, T/C (second compound 0.1 µM, first compound 1 µM) 76.7% | viability, T/C (second compound 0.1 µM, first compound 3.16 µM) 87.9% | viability, T/C (second compound 0.316 µM, first compound 0.0316 µM) 74.5% | viability, T/C (second compound 0.316 µM, first compound 0.1 µM) 81.1% | viability, T/C (second compound 0.316 µM, first compound 0.316 µM) 59.9% | viability, T/C (second compound 0.316 µM, first compound 1 µM) 63.1% | viability, T/C (second compound 0.316 µM, first compound 3.16 µM) 61.3% | viability, T/C (second compound 0.316 µM, first compound 10 µM) 10.2% | viability, T/C (second compound 1 µM, first compound 0.0316 µM) 75.2% | viability, T/C (second compound 1 µM, first compound 0.1 µM) 63.2% | viability, T/C (second compound 1 µM, first compound 0.316 µM) 66.7% | viability, T/C (second compound 1 µM, first compound 1 µM) 64.8% | viability, T/C (second compound 1 µM, first compound 3.16 µM) 42.6% | viability, T/C (second compound 1 µM, first compound 10 µM) 11.8% | viability, T/C (second compound 3.16 µM, first compound 0.0316 µM) 54.9% | viability, T/C (second compound 3.16 µM, first compound 0.1 µM) 50.6% | viability, T/C (second compound 3.16 µM, first compound 0.316 µM) 50.2% | viability, T/C (second compound 3.16 µM, first compound 1 µM) 44.6% | viability, T/C (second compound 3.16 µM, first compound 3.16 µM) 26.5% | viability, T/C (second compound 3.16 µM, first compound 10 µM) 16.4% | viability, T/C (second compound 10 µM, first compound 0.0316 µM) 49.2% | viability, T/C (second compound 10 µM, first compound 0.1 µM) 47% | viability, T/C (second compound 10 µM, first compound 0.316 µM) 53% | viability, T/C (second compound 10 µM, first compound 1 µM) 47% | viability, T/C (second compound 10 µM, first compound 3.16 µM) 30.1% | viability, T/C (second compound 10 µM, first compound 10 µM) 17.9%
3850 nM: IC50 (curve of first compound, second compound 0.316 µM)
5310 nM: IC50 (curve of first compound, second compound 0.1 µM)
< 31.6 nM: IC50 (curve of first compound, second compound 10 µM)
2140 nM: IC50 (curve of first compound, second compound 1 µM)
5930 nM: IC50 (curve of first compound, second compound 0.0316 µM)
active: viability, T/C (second compound 0.0316 µM, first compound 10 µM) 7.61% | viability, T/C (second compound 0.1 µM, first compound 10 µM) 6.61%
379 nM: IC50 (curve of first compound, second compound 3.16 µM)

CC(C)CC(NC(=O)C(Cc1ccccc1)NC(=O)c1cnccn1)B(O)O (stereo unspecified)
inactive: viability, T/C (compound 0.000949 µM) 99.7% and 88.2% | viability, T/C (compound 0.003 µM) 40% and 80.3%
active: viability, T/C (compound 0.00949 µM) 1.73% and 1.58% | viability, T/C (compound 0.03 µM) 0.47% and 0.59% | viability, T/C (compound 0.0949 µM) 0.33% and 0.52% | viability, T/C (compound 0.3 µM) 0.18% and 0.32%
2.48 nM and 4.67 nM: IC50 (curve of compound)

NC(=O)C(=Cn1cnc(-c2cc(C(F)(F)F)cc(C(F)(F)F)c2)n1)c1cncnc1
inactive: viability, T/C (compound 0.00949 µM) 108% and 96.6% | viability, T/C (compound 0.03 µM) 103% | viability, T/C (compound 0.0949 µM) 99.7% and 142% | viability, T/C (compound 0.3 µM) 99% and 152% | viability, T/C (compound 0.949 µM) 55.8% and 101% | viability, T/C (compound 3 µM) 25.7% and 58.9%
1190 nM and > 3000 nM: IC50 (curve of compound)

— PubChem BioAssay AID2060622 (Molecular Pharmacology Branch, DTP, NCI, 2025)
